Laboratory results as given in the CheMixHub viscosity set.
Values joined by “and” are separate entries in the source; they are usually repeats but may differ in a detail not shown here. Equal entries are not always repeated.

Experiment: xn = mol fraction of the nth substance listed

COCCOC + CC1COC(=O)O1
viscosity
Details	298.15 K	308.15 K	318.15 K
101 kPa, x1 = 0.2	1.617 mPa·s and 1.616 mPa·s	–	–
101 kPa, x1 = 0.45	1.009 mPa·s and 1.007 mPa·s	–	–
101 kPa, x1 = 0.7	0.66 mPa·s and 0.659 mPa·s	–	–
101.33 kPa, x1 = 0.0493	2.227 mPa·s	1.833 mPa·s	1.561 mPa·s
101.33 kPa, x1 = 0.0999	1.96 mPa·s	1.659 mPa·s	1.417 mPa·s
101.33 kPa, x1 = 0.1524	1.752 mPa·s	1.495 mPa·s	1.277 mPa·s
101.33 kPa, x1 = 0.1867	1.637 mPa·s	1.402 mPa·s	–
101.33 kPa, x1 = 0.2298	1.507 mPa·s	1.297 mPa·s	1.113 mPa·s
101.33 kPa, x1 = 0.2769	–	1.183 mPa·s	–
101.33 kPa, x1 = 0.3128	1.289 mPa·s	–	0.9676 mPa·s
101.33 kPa, x1 = 0.3708	1.162 mPa·s	0.9973 mPa·s	0.881 mPa·s
101.33 kPa, x1 = 0.4036	1.097 mPa·s	0.9447 mPa·s	0.8272 mPa·s
101.33 kPa, x1 = 0.4686	0.9699 mPa·s	–	–
101.33 kPa, x1 = 0.5193	0.8882 mPa·s	0.7779 mPa·s	0.6827 mPa·s
101.33 kPa, x1 = 0.5704	–	0.7178 mPa·s	0.6389 mPa·s
101.33 kPa, x1 = 0.6382	0.7272 mPa·s	–	0.5728 mPa·s
101.33 kPa, x1 = 0.6767	0.6885 mPa·s	0.6105 mPa·s	0.5449 mPa·s
101.33 kPa, x1 = 0.7589	0.6047 mPa·s	–	0.4782 mPa·s
101.33 kPa, x1 = 0.8103	0.5589 mPa·s	0.5052 mPa·s	0.4571 mPa·s
101.33 kPa, x1 = 0.8432	0.5429 mPa·s	0.4728 mPa·s	0.4376 mPa·s
101.33 kPa, x1 = 0.9035	0.4872 mPa·s	0.4381 mPa·s	0.397 mPa·s
101.33 kPa, x1 = 0.9483	0.4564 mPa·s	0.4073 mPa·s	0.375 mPa·s
101.33 kPa, x2 = 0.2217	0.5911 mPa·s	0.5265 mPa·s	0.4711 mPa·s
101.33 kPa, x2 = 0.3749	0.7628 mPa·s	0.6716 mPa·s	0.5956 mPa·s
101.33 kPa, x2 = 0.5841	1.099 mPa·s	0.9453 mPa·s	0.8342 mPa·s
101.33 kPa, x2 = 0.7836	1.594 mPa·s	1.356 mPa·s	1.168 mPa·s

OC[C@@H](O)[C@H](O)[C@@H](O)CO + O
viscosity [mPa·s], 101.3 kPa
Details	x1 = 0.00359	x1 = 0.007154	x1 = 0.0107	x1 = 0.01421	x1 = 0.0177	x1 = 0.02631	x1 = 0.03478	x1 = 0.0431	x1 = 0.05127
293.15 K	1.06	1.14	–	1.32	–	1.72	2.09	2.42	2.85
303.15 K	0.85	0.91	0.99	1.04	–	1.33	1.53	1.8	2.1
313.15 K	0.69	0.78	0.79	0.83	0.9	1.02	1.19	1.38	1.6
323.15 K	0.58	0.62	–	0.69	0.75	0.85	0.96	1.1	1.25

OC[C@H](O)C(O)[C@@H](O)CO + OC[C@@H](O)[C@H](O)[C@@H](O)CO
Details	viscosity [mPa·s]
313 K, 101 kPa, x2 = 0.56	42740

C1CCCCC1 + Cc1ccccc1
viscosity [mPa·s]
Details	101 kPa	101.33 kPa
293.95 K, x1 = 0.1	–	0.6126
294.15 K, x1 = 0.5	–	0.6762
294.25 K, x1 = 0.2	–	0.6123
294.45 K, x1 = 0.3	–	0.6228
294.75 K, x1 = 0.4	–	0.6357
294.75 K, x1 = 0.6	–	0.6922
296.15 K, x1 = 0.8	–	0.778
303 K, x2 = 0.04	0.7881	–
303 K, x2 = 0.081	0.7486	–
303 K, x2 = 0.162	0.6926	–
303 K, x2 = 0.324	0.6161	–
303 K, x2 = 0.484	0.5705	–
303 K, x2 = 0.644	0.5419	–
303 K, x2 = 0.803	0.5252	–
303 K, x2 = 0.882	0.5268	–
303 K, x2 = 0.96	0.5298	–
303.15 K, x1 = 0.0958	0.5395	–
303.15 K, x1 = 0.0999	0.5263	–
303.15 K, x1 = 0.2	0.5319	0.5546
303.15 K, x1 = 0.2959	0.5409	–
303.15 K, x1 = 0.4126	0.5566	–
303.15 K, x1 = 0.4964	0.5726	–
303.15 K, x1 = 0.6005	0.6005	–
303.15 K, x1 = 0.7032	0.6367	–
303.15 K, x1 = 0.7978	0.6827	–
303.15 K, x1 = 0.8946	0.7448	–
303.15 K, x2 = 0.0999	0.7364	–
303.15 K, x2 = 0.2003	0.6714	–
303.15 K, x2 = 0.3	0.6226	–
303.15 K, x2 = 0.3999	0.5886	–
303.15 K, x2 = 0.5	0.5635	–
303.15 K, x2 = 0.6	0.5481	–
303.15 K, x2 = 0.6999	0.5352	–
303.15 K, x2 = 0.7998	0.5283	–
303.15 K, x2 = 0.9	0.5256	–
303.45 K, x1 = 0.1	–	0.5477
303.45 K, x1 = 0.3	–	0.5618
303.45 K, x1 = 0.8	–	0.7003
303.75 K, x1 = 0.5	–	0.5991
303.95 K, x1 = 0.4	–	0.5688
304.25 K, x1 = 0.6	–	0.6143
308.15 K, x2 = 0.0999	0.6829	–
308.15 K, x2 = 0.2003	0.6256	–
308.15 K, x2 = 0.3	0.5822	–
308.15 K, x2 = 0.3999	0.5527	–
308.15 K, x2 = 0.5	0.5308	–
308.15 K, x2 = 0.6	0.5152	–
308.15 K, x2 = 0.6999	0.5054	–
308.15 K, x2 = 0.7998	0.4991	–
308.15 K, x2 = 0.9	0.497	–
312.45 K, x1 = 0.1	–	0.4994
312.45 K, x1 = 0.3	–	0.51
312.95 K, x1 = 0.8	–	0.6059
313.15 K, x1 = 0.2	–	0.4976
313.15 K, x1 = 0.4	–	0.5137
313.15 K, x1 = 0.4974	0.5095	–
313.15 K, x2 = 0.0999	0.6359	–
313.15 K, x2 = 0.2003	0.585	–
313.15 K, x2 = 0.3	0.5466	–
313.15 K, x2 = 0.3999	0.5206	–
313.15 K, x2 = 0.5	0.4996	–
313.15 K, x2 = 0.7998	0.4731	–
313.15 K, x2 = 0.9	0.4707	–
313.45 K, x1 = 0.5	–	0.5412
313.65 K, x1 = 0.6	–	0.5482
318.15 K, x2 = 0.0999	0.5914	–
318.15 K, x2 = 0.2003	0.548	–
318.15 K, x2 = 0.3	0.5136	–
318.15 K, x2 = 0.3999	0.4913	–
318.15 K, x2 = 0.5	0.4722	–
318.15 K, x2 = 0.6	0.4614	–
318.15 K, x2 = 0.6999	0.4531	–
318.15 K, x2 = 0.7998	0.449	–
318.15 K, x2 = 0.9	0.447	–
322.75 K, x1 = 0.8	–	0.5481
323.15 K, x1 = 0.5989	0.4735	–
323.15 K, x2 = 0.0999	0.5534	–
323.15 K, x2 = 0.2003	0.5139	–
323.15 K, x2 = 0.3	0.4839	–
323.15 K, x2 = 0.3999	0.4632	–
323.15 K, x2 = 0.5	0.4466	–
323.15 K, x2 = 0.6	0.4383	–
323.15 K, x2 = 0.6999	0.4304	–
323.15 K, x2 = 0.7998	0.4264	–
323.15 K, x2 = 0.9	0.4243	–

COC(C)=O + CC(O)CO
Details	viscosity [mPa·s]
298.15 K, 101 kPa, x1 = 0.251	12.35
